≈ marks a conversion by molar mass, not a printed value. Where two headings read alike, the source gives them in different places.
System: pathogenic bacteria
Test: MIC by microdilution broth method (NCCLS M7-A4), in vitro antibacterial activity
Assay type: cell-based
Outline: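 Broth microdilution per NCCLS M7-A4: two-fold serial dilutions in cation-adjusted Mueller-Hinton broth, inoculum about 5×10^4 CFU/well. Trays incubated 16–20 h at 35 °C. MIC read by comparing growth against no-compound growth controls.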

[1] = Staphylococcus aureus, Organism A: Staphylococcus aureus OC4172, read-out: MIC
[2] = Streptococcus pneumoniae, ATCC49619, Organism E: Streptococcus pneumoniae ATCC 49619, read-out: MIC
[3] = Streptococcus pneumoniae, Organism C: fluoroquinolone-resistant clinical isolate of Streptococcus pneumoniae (QRDR amino acid substitutions)
[4] = Streptococcus pneumoniae, Organism D: fluoroquinolone-resistant clinical isolate of Streptococcus pneumoniae (QRDR amino acid substitutions)
[5] = Streptococcus pneumoniae, Organism B: fluoroquinolone-resistant clinical isolate of Streptococcus pneumoniae (QRDR amino acid substitutions)

Row | Structure (SMILES) | MIC [1] [µg/mL] | MIC [2] [µg/mL] | MIC [3] [µg/mL] | MIC [4] [µg/mL] | MIC [5] [µg/mL]
1 | NC/C=C1\CCCN(c2cc3c(cc2F)c(=O)c(C(=O)O)cn3C2CC2)C1 [Compound 384, (E)-7-[3-(2-Amino-ethylidene)-piperidin-1-yl]-1-cyclopropyl-6-fluoro-4-oxo-1,4-dihydro-quinoline-3-carboxylic acid] | 1 (≈ 2.69 µM) | 8 (≈ 21.5 µM) | > 16 | > 16 | –
2 | C/C(CN)=C1/CCCN(c2cc3c(cc2F)c(=O)c(C(=O)O)cn3C2CC2)C1 [Compound 385, (E)-7-[3-(2-Amino-1-methyl-ethylidene)-piperidin-1-yl]-1-cyclopropyl-6-fluoro-4-oxo-1,4-dihydro-quinoline-3-carboxylic acid] | 1 (≈ 2.59 µM) | 8 (≈ 20.8 µM) | > 16 | > 16 | > 16
3 | NC/C(Cl)=C1\CCCN(c2cc3c(cc2F)c(=O)c(C(=O)O)cn3C2CC2)CC1 [Compound 386, (Z)-7-[4-(2-Amino-1-chloro-ethylidene)-azepan-1-yl]-1-cyclopropyl-6-fluoro-4-oxo-1,4-dihydro-quinoline-3-carboxylic acid] | 0.25 (≈ 0.595 µM) | 2 (≈ 4.76 µM) | 8 (≈ 19.1 µM) | 16 (≈ 38.1 µM) | –
4 | NC/C(Cl)=C1/CCCN(c2cc3c(cc2F)c(=O)c(C(=O)O)cn3C2CC2)CC1 [Compound 387, (E)-7-[4-(2-Amino-1-chloro-ethylidene)-azepan-1-yl]-1-cyclopropyl-6-fluoro-4-oxo-1,4-dihydro-quinoline-3-carboxylic acid] | 0.5 (≈ 1.19 µM) | 2 (≈ 4.76 µM) | 16 (≈ 38.1 µM) | 16 (≈ 38.1 µM) | > 16
5 | COc1c(N2CCC/C(=C(/F)CN)C2)c(F)cc2c(=O)c(C(=O)O)cn(C3CC3)c12 [Compound 388, (Z)-7-[3-(2-Amino-1-fluoro-ethylidene)-piperidin-1-yl]-1-cyclopropyl-6-fluoro-8-methoxy-4-oxo-1,4-dihydro-quinoline-3-carboxylic acid] | ≤ 0.25 | 0.5 (≈ 1.19 µM) | 8 (≈ 19.1 µM) | 2 (≈ 4.77 µM) | 2 (≈ 4.77 µM)
6 | COc1c(N2CCC/C(=C/CN)C2)c(F)cc2c(=O)c(C(=O)O)cn(C3CC3)c12 [Compound 389, (Z)-7-[3-(2-Amino-ethylidene)-piperidin-1-yl]-1-cyclopropyl--6-fluoro-8-methoxy-4-oxo-1,4-dihydro-quinoline-3-carboxylic acid] | ≤ 0.015 | 0.06 (≈ 0.149 µM) | 1 (≈ 2.49 µM) | 0.5 (≈ 1.25 µM) | 0.5 (≈ 1.25 µM)
7 | COc1c(N2CCC/C(=C\CN)C2)c(F)cc2c(=O)c(C(=O)O)cn(C3CC3)c12 [Compound 390, (E)-7-[3-(2-Amino-ethylidene)-piperidin-1-yl]-1-cyclopropyl-6-fluoro-8-methoxy-4-oxo-1,4-dihydro-quinoline-3-carboxylic acid] | 0.06 (≈ 0.149 µM) | 0.5 (≈ 1.25 µM) | 2 (≈ 4.98 µM) | 4 (≈ 9.96 µM) | –
8 | COc1c(N2CC(=C(C)CN)C2)c(F)cc2c(=O)c(C(=O)O)cn(C3CC3)c12 [Compound 391, 7-[3-(2-Amino-1-methyl-ethylidene)-azetidin-1-yl]-1-cyclopropyl-6-fluoro-8-methoxy-4-oxo-1,4-dihydro-quinoline-3-carboxylic acid] | 0.06 (≈ 0.155 µM) | 2 (≈ 5.16 µM) | > 16 | 8 (≈ 20.6 µM) | 8 (≈ 20.6 µM)
9 | COc1c(N2CCC/C(=C(/C)CN)C2)c(F)cc2c(=O)c(C(=O)O)cn(C3CC3)c12 [Compound 392, (E)-7-[3-(2-Amino-1-methyl-ethylidene)-piperidin-1-yl]-1-cyclopropyl-6-fluoro-8-methoxy-4-oxo-1,4-dihydro-quinoline-3-carboxylic acid] | 0.25 (≈ 0.602 µM) | 1 (≈ 2.41 µM) | > 16 | 8 (≈ 19.3 µM) | 16 (≈ 38.5 µM)
10 | COc1c(N2CCC/C(=C(/Cl)CN)CC2)c(F)cc2c(=O)c(C(=O)O)cn(C3CC3)c12 [Compound 393, (Z)-7-[4-(2-Amino-1-chloro-ethylidene)-azepan-1-yl]-1-cyclopropyl-6-fluoro-8-methoxy-4-oxo-1,4-dihydro-quinoline-3-carboxylic acid] | 0.25 (≈ 0.556 µM) | 0.5 (≈ 1.11 µM) | 8 (≈ 17.8 µM) | 2 (≈ 4.45 µM) | –
11 | COc1c(N2CCC/C(=C(\Cl)CN)CC2)c(F)cc2c(=O)c(C(=O)O)cn(C3CC3)c12 [Compound 394, (E)-7-[4-(2-Amino-1-chloro-ethylidene)-azepan-1-yl]-1-cyclopropyl-6-fluoro-8-methoxy-4-oxo-1,4-dihydro-quinoline-3-carboxylic acid] | 0.03 (≈ 0.0667 µM) | 0.5 (≈ 1.11 µM) | 4 (≈ 8.89 µM) | 1 (≈ 2.22 µM) | 1 (≈ 2.22 µM)
12 | NC/C(F)=C1\CCCN(c2c(F)cc3c(=O)c(C(=O)O)cn(C4CC4)c3c2OC(F)F)C1 [Compound 395, (Z)-7-[3-(2-Amino-1-fluoro-ethylidene)-piperidin-1-yl]-1-cyclopropyl-8-difluoromethoxy-6-fluoro-4-oxo-1,4-dihydro-quinoline-3-carboxylic acid] | 0.06 (≈ 0.132 µM) | 0.5 (≈ 1.1 µM) | 8 (≈ 17.6 µM) | 0.5 (≈ 1.1 µM) | 4 (≈ 8.78 µM)
13 | NC/C=C1/CCCN(c2c(F)cc3c(=O)c(C(=O)O)cn(C4CC4)c3c2OC(F)F)C1 [Compound 396, (Z)-7-[3-(2-Amino-ethylidene)-piperidin-1-yl]-1-cyclopropyl-8-difluoromethoxy-6-fluoro-4-oxo-1,4-dihydro-quinoline-3-carboxylic acid] | 0.03 (≈ 0.0686 µM) | 0.25 (≈ 0.572 µM) | 4 (≈ 9.14 µM) | 0.5 (≈ 1.14 µM) | 2 (≈ 4.57 µM)
14 | NC/C=C1\CCCN(c2c(F)cc3c(=O)c(C(=O)O)cn(C4CC4)c3c2OC(F)F)C1 [Compound 397, (E)-7-[3-(2-Amino-ethylidene)-piperidin-1-yl]-1-cyclopropyl-8-difluoromethoxy-6-fluoro-4-oxo-1,4-dihydro-quinoline-3-carboxylic acid] | 0.06 (≈ 0.137 µM) | 0.5 (≈ 1.14 µM) | 8 (≈ 18.3 µM) | 2 (≈ 4.57 µM) | –
15 | C[C@H]1COc2c(N3CCC/C(=C(\F)CN)C3)c(F)cc3c(=O)c(C(=O)O)cn1c23 [Compound 398, (E)-9-[3-(2-Amino-1-fluoro-ethylidene)-piperidin-1-yl]-8-fluoro-(3S)-3-methyl-6-oxo-2,3-dihydro-6H-1-oxa-3a-aza-phenalene-5-carboxylic acid] | ≤ 0.015 | 0.03 (≈ 0.074 µM) | 0.5 (≈ 1.23 µM) | 1 (≈ 2.47 µM) | 0.25 (≈ 0.617 µM)
16 | C[C@H]1COc2c(N3CCC/C(=C(/F)CN)C3)c(F)cc3c(=O)c(C(=O)O)cn1c23 [Compound 399, (Z)-9-[3-(2-Amino-1-fluoro-ethylidene)-piperidin-1-yl]-8-fluoro-(3S)-3-methyl-6-oxo-2,3-dihydro-6H-1-oxa-3a-aza-phenalene-5-carboxylic acid] | 0.5 (≈ 1.23 µM) | 2 (≈ 4.93 µM) | > 16 | > 16 | 4 (≈ 9.87 µM)
17 | C[C@H]1COc2c(N3CCC/C(=C(\Cl)CN)C3)c(F)cc3c(=O)c(C(=O)O)cn1c23 [Compound 400, (E)-9-[3-(2-Amino-1-chloro-ethylidene)-piperidin-1-yl]-8-fluoro-(3S)-3-methyl-6-oxo-2,3-dihydro-6H-1-oxa-3a-aza-phenalene-5-carboxylic acid] | ≤ 0.015 | 0.06 (≈ 0.142 µM) | 0.5 (≈ 1.19 µM) | 0.5 (≈ 1.19 µM) | 0.25 (≈ 0.593 µM)
18 | C[C@H]1COc2c(N3CCC/C(=C\CN)C3)c(F)cc3c(=O)c(C(=O)O)cn1c23 [Compound 401, (E)-9-[3-(2-Amino-ethylidene)-piperidin-1-yl]-8-fluoro-(3S)-3-methyl-6-oxo-2,3-dihydro-6H-1-oxa-3a-aza-phenalene-5-carboxylic acid] | 1 (≈ 2.58 µM) | 8 (≈ 20.6 µM) | > 16 | > 16 | –
19 | C[C@H]1COc2c(N3CCC/C(=C/CN)C3)c(F)cc3c(=O)c(C(=O)O)cn1c23 [Compound 402, (Z)-9-[3-(2-Amino-ethylidene)-piperidin-1-yl]-8-fluoro-(3S)-3-methyl-6-oxo-2,3-dihydro-6H-1-oxa-3a-aza-phenalene-5-carboxylic acid] | 0.25 (≈ 0.645 µM) | 2 (≈ 5.16 µM) | > 16 | > 16 | 16 (≈ 41.3 µM)
20 | C/C(CN)=C1\CCCN(c2c(F)cc3c(=O)c(C(=O)O)cn4c3c2OC[C@@H]4C)C1 [Compound 404, (Z)-9-[3-(2-Amino-1-methyl-ethylidene)-piperidin-1-yl]-8-fluoro-(3S)-3-methyl-6-oxo-2,3-dihydro-6H-1-oxa-3a-aza-phenalene-5-carboxylic acid] | 0.12 (≈ 0.299 µM) | 0.5 (≈ 1.25 µM) | 16 (≈ 39.9 µM) | > 16 | 4 (≈ 9.96 µM)
21 | COc1c(N2CCC/C(=C(\F)CN)C2)c(F)cc2c(=O)c(C(=O)O)cn([C@@H]3C[C@@H]3F)c12 [Compound 405, (E)-7-[3-(2-Amino-1-fluoro-ethylidene)-piperidin-1-yl]-6-fluoro-(1R,2S)-1-(2-fluoro-cyclopropyl)-8-methoxy-4-oxo-1,4-dihydro-quinoline-3-carboxylic acid] | ≤ 0.015 | ≤ 0.25 | 0.25 (≈ 0.572 µM) | 0.25 (≈ 0.572 µM) | ≤ 0.12
22 | COc1c(N2CCC/C(=C(/F)CN)C2)c(F)cc2c(=O)c(C(=O)O)cn([C@@H]3C[C@@H]3F)c12 [Compound 406, (Z)-7-[3-(2-Amino-1-fluoro-ethylidene)-piperidin-1-yl]-6-fluoro-(1R,2S)-1-(2-fluoro-cyclopropyl)-8-methoxy-4-oxo-1,4-dihydro-quinoline-3-carboxylic acid] | 0.06 (≈ 0.137 µM) | 0.5 (≈ 1.14 µM) | 8 (≈ 18.3 µM) | 2 (≈ 4.57 µM) | 8 (≈ 18.3 µM)

Reference: patent publication US20090156577A1, “7-AMINO ALKYLIDENYL-HETEROCYCLIC QUINOLONES AND NAPHTHYRIDONES” (priority 2004, published 2009)
